Several values for one entry are separate records, joined by “and”; a condition that tells them apart may be missing. Equal values may be shown once.

In one experiment the test system is T47D. The experiment in a line: MTT cytotoxicity assay, T47D breast cancer cells. The format is cell-based. The settings on record: Homo sapiens, 48 h, read-out: IC50, cytotoxic activity against T47D.
The subject of a further experiment is HeLa. Briefly: MTT cytotoxicity assay, HeLa cervical cancer cells. In kind it is cell-based. The settings on record: Homo sapiens, 48 h, read-out: IC50, cytotoxic activity against HeLa. In general terms: Tetrazolium dyes change colour on reduction, which living cells bring about.

In general, IC50 refers to the midpoint of a concentration-inhibition curve. For the compound `COc1cccc2c1C(=O)c1c(O)c3c(c(O)c1C2=O)C[C@@](O)(C(=O)CO)C[C@@H]3O[C@H]1C[C@H](N)[C@H](O)[C@H](C)O1` [DOX, doxorubicin], the IC50 was 0.17 µg/mL and 310 nM with T47D; 3.38 µg/mL and 6.22 µM with HeLa.

For the origin of these results see PMC11492916 (OncoTargets and Therapy, 2024).
